Experimental data published in ChEMBL document CHEMBL3046569 (Med Chem Res, 2011).

Tests used:
[1] = tested on: Human immunodeficiency virus 1; assay: Antiviral activity against Human immunodeficiency virus 1 infected human H9 cells assessed as inhibition of viral replication; format: functional, organism-based; conditions: Human immunodeficiency virus 1, H9
[2] = Therapeutic index, ratio of IC50 for human H9 cells to EC50 for HIV1; format: cell-based; conditions: for pTI: h9

| EC50 ([1]; read-out: EC50) [nM] | SMILES | EC50 ([1]; read-out: pEC50 (converted)) [nM] | pTI [2] | selectivity ratio ([2]; H9 cells, read-out: Ratio IC50/EC50) |
| --- | --- | --- | --- | --- |
|  | C=C(C)[C@@H]1CC[C@]2(C(=O)O)CC[C@]3(C)[C@H](CC[C@@H]4[C@@]5(C)CC[C@H](OC(=O)CCCC(=O)O)C(C)(C)[C@@H]5CC[C@]43C)[C@@H]12 | 44 | -2.465 |  |
|  | CC(C)[C@@H]1CC[C@]2(C(=O)OCc3ccccc3)CC[C@]3(C)[C@H](CC[C@@H]4[C@@]5(C)CC[C@H](O)C(C)(C)[C@@H]5CC[C@]43C)[C@@H]12 | 100000 | -0.255 |  |
|  | CC(C)[C@@H]1CC[C@]2(C(=O)OC(=O)N3CCOCC3)CC[C@]3(C)[C@H](CC[C@@H]4[C@@]5(C)CC[C@H](O)C(C)(C)[C@@H]5CC[C@]43C)[C@@H]12 | 26000 | -0.114 |  |
|  | CC(C)[C@@H]1CC[C@]2(C(=O)O)CC[C@]3(C)[C@H](CC[C@@H]4[C@@]5(C)CC[C@H](OC(=O)CCCC(=O)O)C(C)(C)[C@@H]5CC[C@]43C)[C@@H]12 | 1800 | -0.875 |  |
|  | CC(C)[C@@H]1CC[C@]2(C(=O)O)CC[C@]3(C)[C@H](CC[C@@H]4[C@@]5(C)CC[C@H](OC(=O)C67CCC(C)(C(=O)O6)C7(C)C)C(C)(C)[C@@H]5CC[C@]43C)[C@@H]12 (some centres undefined) | 500 | -0.301 |  |
|  | CC(C)CC(=O)O[C@H]1CC[C@]2(C)[C@H]3CC[C@@H]4[C@H]5[C@H](C(C)C)CC[C@]5(C(=O)O)CC[C@@]4(C)[C@]3(C)CC[C@H]2C1(C)C | 1500 | -1.748 |  |
|  | CC(C)[C@@H]1CC[C@]2(C(=O)OCc3ccccc3)CC[C@]3(C)[C@H](CC[C@@H]4[C@@]5(C)CC[C@H](OC(=O)CC(C)(C)C(=O)O)C(C)(C)[C@@H]5CC[C@]43C)[C@@H]12 | 230 | -1.748 |  |
|  | CC(C)[C@@H]1CC[C@]2(C(=O)OCc3ccccc3)CC[C@]3(C)[C@H](CC[C@@H]4[C@@]5(C)CC[C@H](OC(=O)CCCC(=O)O)C(C)(C)[C@@H]5CC[C@]43C)[C@@H]12 | 500 | -1.279 |  |
|  | C=C(C)[C@@H]1CC[C@]2(C(=O)OC(=O)N3CCOCC3)CC[C@]3(C)[C@H](CC[C@@H]4[C@@]5(C)CC[C@H](O)C(C)(C)[C@@H]5CC[C@]43C)[C@@H]12 | 3200 | -0.556 |  |
|  | C=C(C)[C@@H]1CC[C@]2(C(=O)O)CC[C@]3(C)[C@H](CC[C@@H]4[C@@]5(C)CC[C@H](OC(=O)COCC(=O)O)C(C)(C)[C@@H]5CC[C@]43C)[C@@H]12 | 10 | -3.069 |  |
|  | CC(C)[C@@H]1CC[C@]2(C(=O)O)CC[C@]3(C)[C@H](CC[C@@H]4[C@@]5(C)CC[C@H](OC(=O)CC(C)(C)C(=O)O)C(C)(C)[C@@H]5CC[C@]43C)[C@@H]12 | 0.3 | -4.146 |  |
|  | CC(C)[C@@H]1CC[C@]2(C(=O)O)CC[C@]3(C)[C@H](CC[C@@H]4[C@@]5(C)CC[C@H](OC(=O)C(C)(C)CC(=O)O)C(C)(C)[C@@H]5CC[C@]43C)[C@@H]12 | 560 | -1.14 |  |
|  | CC(C)[C@@H]1CC[C@]2(C(=O)O)CC[C@]3(C)[C@H](CC[C@@H]4[C@@]5(C)CC[C@H](OC(=O)COCC(=O)O)C(C)(C)[C@@H]5CC[C@]43C)[C@@H]12 | 5.6 | -3.37 |  |
|  | CC(C)[C@@H]1CC[C@]2(C(=O)O)CC[C@]3(C)[C@H](CC[C@@H]4[C@@]5(C)CC[C@H](OC(=O)CC(C)(C)CC(=O)O)C(C)(C)[C@@H]5CC[C@]43C)[C@@H]12 | 5.7 | -3.007 |  |
|  | C=C(C)[C@@H]1CC[C@]2(C(=O)O)CC[C@]3(C)[C@H](CC[C@@H]4[C@@]5(C)CC[C@H](OC(=O)C(C)(C)CC(=O)O)C(C)(C)[C@@H]5CC[C@]43C)[C@@H]12 | 2700 | -0.826 |  |
|  | C=C(C)[C@@H]1CC[C@]2(C(=O)O)CC[C@]3(C)[C@H](CC[C@@H]4[C@@]5(C)CC[C@H](O)C(C)(C)[C@@H]5CC[C@]43C)[C@@H]12 (stereo in doubt; 8) [BETULINIC ACID] | 899 | -1.146 |  |
|  | C=C(C)[C@@H]1CC[C@]2(CO)CC[C@]3(C)[C@H](CC[C@@H]4[C@@]5(C)CC[C@@H](O)C(C)(C)[C@@H]5CC[C@]43C)[C@@H]12 [3-EPI-BETULIN] | 3620 | -0.532 |  |
|  | C=C(CO)[C@@H]1CC[C@]2(CO)CC[C@]3(C)[C@H](CC[C@@H]4[C@@]5(C)CC[C@H](O)C(C)(C)[C@@H]5CC[C@]43C)[C@@H]12 [30-HYDROXY-BETULIN] | 50800 | -0.447 |  |
|  | C=C(C)[C@@H]1CC[C@]2(COC(C)=O)CC[C@]3(C)[C@H](CC[C@@H]4[C@@]5(C)CC[C@H](OC(C)=O)C(C)(C)[C@@H]5CC[C@]43C)[C@@H]12 [BETULIN DIACETATE] | 190000 | 0 |  |
|  | C=C(C)[C@@H]1CC[C@]2(/C=N/O)CC[C@]3(C)[C@H](CC[C@@H]4[C@@]5(C)CC/C(=N\O)C(C)(C)[C@@H]5CC[C@]43C)[C@@H]12 [BETULIN-3,28-DIOXIME] | 1070 | -0.708 |  |
| 0.35 | C=C(C)[C@@H]1CC[C@]2(C(=O)O)CC[C@]3(C)[C@H](CC[C@@H]4[C@@]5(C)CC[C@H](OC(=O)CC(C)(C)C(=O)O)C(C)(C)[C@@H]5CC[C@]43C)[C@@H]12 [BEVIRIMAT] | 0.3 | -4.301 | 20000 |
